Experimental data taken from patent EP0557876A1, “Use of xanthine derivatives for the treatment of muscle damage subsequent to complete interruption of blood circulation” (HOECHST AKTIENGESELLSCHAFT, priority 1992, dated 1993).
Marks after values point to notes of the source that are not given here.

System: Muskelfasern
Experiment: Muscle fibre diameter after 3 h tourniquet interruption of blood circulation in a hind limb and subsequent reperfusion
Assay type: in vivo, Cercopithecus pygerythrus
Parameters: durchschnittliche Durchmesser Muskelfaser Typ1 / durchschnittliche Durchmesser Muskelfaser Typ2a: unit not given here
Protocol: Zwei Gruppen von acht erwachsenen, männlichen südafrikanischen Meerkatzen (Cercopithecus pygerythrus) werden untersucht. Die Anasthäsie der Tiere erfolgt intramuskulär mit 15 mg/kg Ketamin (Warner Lambert) und wird intravenös mit Thiopenton Natrium (25 mg/kg, May und Baker) aufrecht erhalten. Eine hintere Extremität wird durch eine pneumatische Abschnürbinde und eine Esmarch Bandage blutleer gemacht. Die Unterbrechung der Blutzirklation wird drei Stunden aufrechterhalten, dann wird die Unterbrechung beendet und die Tiere können aus der Betäubung aufwachen. Die Entnahme der Muskelgewebeproben erfolgt unter Betäubung (15 mg/kg Ketamin).
20 mg/kg Verbindung 1 wird intravenös über 30 Minuten den Tieren appliziert bevor die Unterbrechung der Blutzirkulation erfolgt.
Das entnommene Muskelgewebe wird sofort in Isopentan bei -183° C eingefroren. Die Präparation des Muskelgewebes erfolgt wie bei Dubowitz (Dubowitz et al. Muscle Biopsy A practical Approach, London, Bailliere Tindall, 1985, S. 82 - 128) beschrieben. Mikroskopische Schnitte werden mit Muskelfaser-ATPase für 30 Minuten bei pH 9,4 gefärbt, eingebettet und im Lichtmikroskop untersucht. Die Durchmesser von wenigstens 200 Muskelfasern werden mit einem computerisierten Video-Image-Analysator ausgewertet.
Der durchschnittliche Durchmesser jedes Muskelfasertyps wird in Tabelle 1 beschrieben.

[1] = Unterbrechung der Blutzirkulation, lower part of Tabelle 1 (12/18/24 h series), 20 mg/kg i.v.
[2] = Unterbrechung der Blutzirkulation, upper part of Tabelle 1 (3/6 h series), 20 mg/kg i.v.
[3] = Vor Unterbrechung der Blutzirkulation, lower part of Tabelle 1 (12/18/24 h series), 20 mg/kg i.v. over 30 min before interruption
[4] = Vor Unterbrechung der Blutzirkulation, upper part of Tabelle 1 (3/6 h series), 20 mg/kg i.v. over 30 min before interruption

## CCOCn1cnc2c1c(=O)n(CCCCC(C)(C)O)c(=O)n2C [Verbindung 1, 7-Ethoxymethyl-1-(5-hydroxy-5-methylhexyl)-3-methylxanthin]
Nach 3 Stunden, 20 mg/kg i.v.
  durchschnittliche Durchmesser Muskelfaser Typ1: 39,89*
  durchschnittliche Durchmesser Muskelfaser Typ2a: 48,55*
Nach 6 Stunden, 20 mg/kg i.v.
  durchschnittliche Durchmesser Muskelfaser Typ1: 43,42*
  durchschnittliche Durchmesser Muskelfaser Typ2a: 53,37*
Nach 12 Stunden, 20 mg/kg i.v.
  durchschnittliche Durchmesser Muskelfaser Typ1: 35,79
  durchschnittliche Durchmesser Muskelfaser Typ2a: 42,28*
Nach 18 Stunden, 20 mg/kg i.v.
  durchschnittliche Durchmesser Muskelfaser Typ1: 34,68
  durchschnittliche Durchmesser Muskelfaser Typ2a: 41,31
Nach 24 Stunden, 20 mg/kg i.v.
  durchschnittliche Durchmesser Muskelfaser Typ1: 33,00
  durchschnittliche Durchmesser Muskelfaser Typ2a: 40,24
[1]
  durchschnittliche Durchmesser Muskelfaser Typ1: 33,21
  durchschnittliche Durchmesser Muskelfaser Typ2a: 38,69
[2]
  durchschnittliche Durchmesser Muskelfaser Typ1: 36,28
  durchschnittliche Durchmesser Muskelfaser Typ2a: 44,75
[3]
  durchschnittliche Durchmesser Muskelfaser Typ1: 36,50
  durchschnittliche Durchmesser Muskelfaser Typ2a: 45,09
[4]
  durchschnittliche Durchmesser Muskelfaser Typ1: 36,50
  durchschnittliche Durchmesser Muskelfaser Typ2a: 45,09
Nach 18 - 24 Stunden Wiederdurchblutung, 20 mg/kg i.v.
  Schwellung der Muskelfasern vom Typ 1 und 2a: signifikant verringerte Schwellung
